Assay [1] has as its target NACHT, LRR and PYD domains-containing protein 1 (Homo sapiens, UniProt Q9C000). Nature of the assay: NALP1 inhibitors in yeast, dose response, luminescent (AID 488860). In kind it is functional.
The test system of another assay is Saccharomyces cerevisiae. Nature of the assay: S. cerevisiae Caspase-1/ASC signal blockers IC50, NALP1 inhibitor project selectivity test (AID 488863). Type of assay: functional, organism-based.
The target of assay [2] is T1, Polyadenylate-binding protein 1 (Homo sapiens, UniProt P11940). The assay is described as follows: MLLE binding blockers, Cy5 peptide tracer – biochemical, fluorescence polarization, Cy5-PAM2 peptide, secondary, miRNA deadenylation inhibitor project, dose response (AID 602260). Type of assay: functional. The conditions noted are these: read-out: IC50_Mean. On the technique in general: In fluorescence polarisation assays a small probe gives low polarisation when free and higher when bound to something large.

In assay [3] the target is T1, Polyadenylate-binding protein 1. The assay is described as follows: MLLE domain peptide-binding blockers, IC50 – biochemical, fluorescence polarization, FITC-PAM2 peptide, dose response (AID 602259). In kind it is functional. As to conditions: read-out: IC50_Mean.
A short description of assay [4]: DRD BJ cell killing, Ras synthetic lethality – DRD BJ fibroblasts, HRASV12, dry powder, dose response (AID 493049). Type of assay: functional, cell-based.
A short description of assay [5]: HRAS-V12 fibroblast viability reduction – cell-based, Alamar Blue, dry powder, Ras selective lethality project, primary screen (AID 493045). Type of assay: functional. As to conditions: BJeLR.
Assay [6] in a line: BJeH cell viability loss – BJeH cells, dry powder, counter-screen for Ras selective lethality project, dose response (AID 493054). Type of assay: functional, cell-based. A general note: The purpose of a counterscreen is to sort out artefacts and off-target activity.
Assay [7] is described as follows: BJeHLT cell viability loss – BJeHLT cells, dry powder, counter-screen for Ras selective lethality project, dose response (AID 493052). As to conditions: Homo sapiens. In kind it is functional, cell-based.
Assay [8] has as its target T2, Histone-lysine N-methyltransferase NSD2 (Homo sapiens, UniProt O96028).
T2 sequence (O96028 whole entry): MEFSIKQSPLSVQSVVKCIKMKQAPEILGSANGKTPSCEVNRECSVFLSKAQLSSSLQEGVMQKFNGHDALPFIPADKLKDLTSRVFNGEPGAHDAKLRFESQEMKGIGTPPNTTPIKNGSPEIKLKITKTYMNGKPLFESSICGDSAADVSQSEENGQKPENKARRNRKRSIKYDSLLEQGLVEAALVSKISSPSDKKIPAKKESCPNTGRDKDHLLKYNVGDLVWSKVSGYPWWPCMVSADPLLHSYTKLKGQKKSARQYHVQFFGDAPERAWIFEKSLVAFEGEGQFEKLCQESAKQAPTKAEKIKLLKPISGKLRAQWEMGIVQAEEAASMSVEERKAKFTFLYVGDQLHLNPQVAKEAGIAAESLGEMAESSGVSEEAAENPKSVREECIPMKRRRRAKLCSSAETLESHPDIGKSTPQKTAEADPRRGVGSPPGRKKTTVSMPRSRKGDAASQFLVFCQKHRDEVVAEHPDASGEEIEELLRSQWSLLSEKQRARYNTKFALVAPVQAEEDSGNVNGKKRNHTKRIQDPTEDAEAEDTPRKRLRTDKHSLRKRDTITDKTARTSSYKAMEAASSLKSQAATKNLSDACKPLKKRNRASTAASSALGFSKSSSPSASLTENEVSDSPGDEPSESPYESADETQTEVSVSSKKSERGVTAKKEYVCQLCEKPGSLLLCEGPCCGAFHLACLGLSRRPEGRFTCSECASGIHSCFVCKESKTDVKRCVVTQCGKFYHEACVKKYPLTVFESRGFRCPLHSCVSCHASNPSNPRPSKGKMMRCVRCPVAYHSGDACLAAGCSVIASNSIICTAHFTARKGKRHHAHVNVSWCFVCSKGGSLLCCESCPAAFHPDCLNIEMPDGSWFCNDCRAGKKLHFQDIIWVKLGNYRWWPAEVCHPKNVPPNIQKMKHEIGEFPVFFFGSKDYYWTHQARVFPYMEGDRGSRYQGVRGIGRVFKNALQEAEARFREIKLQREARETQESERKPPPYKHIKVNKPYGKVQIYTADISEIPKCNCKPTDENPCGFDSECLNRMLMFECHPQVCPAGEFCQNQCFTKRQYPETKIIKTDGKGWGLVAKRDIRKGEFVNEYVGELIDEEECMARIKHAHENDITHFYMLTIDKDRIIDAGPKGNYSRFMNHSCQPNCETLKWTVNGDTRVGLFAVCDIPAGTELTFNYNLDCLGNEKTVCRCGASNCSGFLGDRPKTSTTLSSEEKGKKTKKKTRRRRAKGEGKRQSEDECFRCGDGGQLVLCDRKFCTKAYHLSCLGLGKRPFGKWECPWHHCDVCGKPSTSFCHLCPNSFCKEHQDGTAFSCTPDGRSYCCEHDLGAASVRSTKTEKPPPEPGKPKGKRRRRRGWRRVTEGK
Type of assay: biochemical.

The nature of assay [9]: HEK-293T cell viability reduction – luminescence, B-cell screen hits, cytotoxicity control for BCR NF-kB inhibitor project, dose response (AID 489021).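 Note: HEK-293T cells carrying an NF-kB luciferase reporter; cells exposed to compound for about 14 hours before viability readout.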 Type of assay: functional, cell-based.
Assay [10] addresses T1, Polyadenylate-binding protein 1. The assay is described as follows: PABP inhibition in translation initiation, SAR follow-up (AID 435018). In kind it is functional.
Assay [11] deals with Eukaryotic translation initiation factor 4H (Homo sapiens, UniProt Q15056). The assay is described as follows: inhibitors of translation initiation factor eIF4H – SAR follow-up (AID 435011). Type of assay: functional.
The target of assay [12] is NACHT, LRR and PYD domains-containing protein 3 (Homo sapiens, UniProt Q96P20). Nature of the assay: NALP3 inhibitors in yeast, dose response, luminescent (AID 488799). In kind it is functional.
The target in a further assay is ORF 73 (Human herpesvirus 8, UniProt O40947). The assay is described as follows: KSHV LANA DNA-binding disruption – biochemical, fluorescence polarization, cherry-picked samples, dose response (AID 504725).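 Note: fluorescence polarization of a labeled DNA duplex reporting LANA DNA binding; potency is for inhibitors that block LANA binding to the DNA.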 The arrangement: species or system Human gammaherpesvirus 8.
For assay [13], the target named is Glyceraldehyde-3-phosphate dehydrogenase (Homo sapiens, UniProt P04406).
In assay [14] the target is Heat shock cognate 71 kDa protein (Homo sapiens, UniProt P11142). The assay is described as follows: In Vitro Hsc70 Dose Response Fluorescence Polarization Assay. [Related pubchem assays: 1072 ].
Assay [15] concerns the target Heat shock 70 kDa protein 1A (Homo sapiens, UniProt P0DMV8). Nature of the assay: inhibition of Hsp70 binding activity – biochemical, fluorescence polarization, SAR follow-up (AID 1072).
Another assay addresses Genome polyprotein (dengue virus type 2, UniProt P29990). The assay is described as follows: flavivirus cap methylation enzyme inhibition – biochemical, confirmation dose response, primary screen (AID 588689). In kind it is functional.
For assay [16], the target named is T3, RNA-binding protein pos-1 (Caenorhabditis elegans, UniProt G5EF15).
T3 sequence (G5EF15 whole entry): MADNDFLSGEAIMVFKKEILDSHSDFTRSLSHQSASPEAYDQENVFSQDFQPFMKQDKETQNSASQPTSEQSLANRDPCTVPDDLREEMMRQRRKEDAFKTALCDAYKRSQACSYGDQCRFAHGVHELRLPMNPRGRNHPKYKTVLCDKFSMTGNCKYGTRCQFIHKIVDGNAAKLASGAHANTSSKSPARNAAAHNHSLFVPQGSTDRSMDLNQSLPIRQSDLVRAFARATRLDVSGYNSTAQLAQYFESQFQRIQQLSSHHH
Nature of the assay: disruptors of C. elegans POS-1 RNA interaction – biochemical, fluorescence polarization, dose response (AID 1964).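 Note: purified POS-1 fused to maltose binding protein made in E. coli; potency of compounds blocking POS-1 binding to fluorescent RNA.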

In assay [17] the target is T4, Zinc finger protein mex-5 (Caenorhabditis elegans, UniProt Q9XUB2).
T4 sequence (Q9XUB2 whole entry): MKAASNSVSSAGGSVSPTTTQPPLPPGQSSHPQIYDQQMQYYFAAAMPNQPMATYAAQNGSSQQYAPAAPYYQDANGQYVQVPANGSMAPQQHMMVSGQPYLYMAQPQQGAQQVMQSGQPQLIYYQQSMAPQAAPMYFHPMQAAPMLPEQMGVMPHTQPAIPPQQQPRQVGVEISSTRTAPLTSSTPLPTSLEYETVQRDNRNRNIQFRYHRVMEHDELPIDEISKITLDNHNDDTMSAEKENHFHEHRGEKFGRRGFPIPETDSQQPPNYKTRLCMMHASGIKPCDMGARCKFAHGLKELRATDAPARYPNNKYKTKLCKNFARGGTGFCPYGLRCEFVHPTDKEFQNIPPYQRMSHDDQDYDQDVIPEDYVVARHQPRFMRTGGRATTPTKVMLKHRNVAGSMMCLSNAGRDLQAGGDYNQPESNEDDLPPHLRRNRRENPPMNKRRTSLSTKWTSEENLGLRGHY
Nature of the assay: potency of MEX-5 RNA-binding blockers – biochemical, C. elegans, fluorescence polarization, dose response (AID 1960).

Assay [18] deals with BJ. The assay is described as follows: BJ-TERT-LT-ST fibroblast viability loss – cell-based, RAS-independent, luminescence, dose response (AID 1935).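 Note: BJ fibroblasts immortalized with TERT plus LT and ST oncogenes.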 Type of assay: functional. The conditions noted are these: Homo sapiens.
Assay [19] has as its system BJ. The assay is described as follows: BJ-TERT fibroblast viability loss – cell-based, RAS-independent, luminescence, dose response (AID 1933). Type of assay: functional. As to conditions: Homo sapiens.
The nature of assay [20]: luciferase reporter signal suppression in cells – H4 neuroglioma cells, luminescence, dose response (AID 1990). Type of assay: functional, cell-based. For orientation: A reporter such as luciferase makes a cellular process visible.
Another assay in a line: cells. Type of assay: functional, cell-based.
For another assay, the system named is J774.A1. The assay is described as follows: Confirmation of image-based Screening Assay for Inhibitors of Phagocytosis. [Related pubchem assays (depositor defined):AID1029, AID1643]. In kind it is functional, cell-based. As to conditions: Mus musculus.
The test system of assay [21] is BJ. Nature of the assay: cells. As to conditions: Homo sapiens. Type of assay: functional, cell-based.
A short description of assay [22]: DRD fibroblast viability loss – cell-based, non-viral oncogenic, luminescence, dose response (AID 1934). Type of assay: functional. The conditions noted are these: Homo sapiens.
Assay [23] in a line: Luminescence Cell-Based Dose Response HTS to Identify Inhibitors of 5'UTR Stem-Loop Driven Prion Protein mRNA Translation in H4 Neuroglioblastoma Cells. [Related pubchem assays: 1827 (Project Summary), 1813 (Primary HTS)]. In kind it is functional.
A short description of assay [24]: alpha-synuclein stem-loop translation blockers – luminescence, H4 neuroglioblastoma cells, dose confirmation, confirmation (AID 2454).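 Note: H4 neuroglioblastoma cells carrying an alpha-synuclein 5'UTR luciferase reporter; potency for inhibition of the luciferase signal.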 Type of assay: functional, cell-based.
Assay [25] in a line: toxicity toward HEK293 cells – cell-based, dry powder samples, cytotoxicity control, dose response (AID 720567). In kind it is functional.
Assay [26] can be described thus: alpha-synuclein stem-loop luciferase translation blockers – H4 neuroglioma cells, luminescence, confirmation (AID 1988). In kind it is functional, cell-based.
A short description of assay [27]: HEK-293T viability loss after treatment – luminescence, T-cell screen hits, cytotoxicity control for TCR NF-kB inhibitor project, dose response (AID 489026).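 Note: cells exposed to compound about 14 hours before the viability readout.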 Type of assay: functional, cell-based.
Assay [28] is described as follows: luciferase reporter signal reduction – luminescence, H4-C neuroglioblastoma cells, dose response (AID 2458).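 Note: H4 neuroglioblastoma cells stably carrying a luciferase reporter gene fusion.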 Type of assay: functional, cell-based.

Active and inactive are the calls of the source.

In general, AC50 refers to the concentration at which the activity in the assay is half-maximal. As usually defined, the EC50 is the concentration that produces a half-maximal response.

T1 sequence (P11940 whole entry): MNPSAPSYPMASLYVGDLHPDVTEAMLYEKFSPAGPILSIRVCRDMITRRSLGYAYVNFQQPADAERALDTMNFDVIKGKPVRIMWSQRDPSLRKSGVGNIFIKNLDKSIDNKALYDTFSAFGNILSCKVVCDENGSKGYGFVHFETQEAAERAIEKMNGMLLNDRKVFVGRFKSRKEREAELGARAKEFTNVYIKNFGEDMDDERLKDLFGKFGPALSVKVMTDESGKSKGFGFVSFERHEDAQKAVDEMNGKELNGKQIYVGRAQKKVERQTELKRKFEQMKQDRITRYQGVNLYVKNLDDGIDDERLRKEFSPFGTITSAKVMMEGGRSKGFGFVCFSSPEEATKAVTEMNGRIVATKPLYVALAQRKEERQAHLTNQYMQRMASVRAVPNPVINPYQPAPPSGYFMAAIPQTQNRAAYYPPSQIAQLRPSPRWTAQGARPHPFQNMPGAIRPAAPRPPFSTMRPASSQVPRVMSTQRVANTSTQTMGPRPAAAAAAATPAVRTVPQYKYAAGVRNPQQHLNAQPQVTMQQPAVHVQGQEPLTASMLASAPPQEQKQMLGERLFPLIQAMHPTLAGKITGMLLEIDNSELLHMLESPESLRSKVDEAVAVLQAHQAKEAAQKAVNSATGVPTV
Genome polyprotein, sequence (P29990 2492-3391 limits assumed): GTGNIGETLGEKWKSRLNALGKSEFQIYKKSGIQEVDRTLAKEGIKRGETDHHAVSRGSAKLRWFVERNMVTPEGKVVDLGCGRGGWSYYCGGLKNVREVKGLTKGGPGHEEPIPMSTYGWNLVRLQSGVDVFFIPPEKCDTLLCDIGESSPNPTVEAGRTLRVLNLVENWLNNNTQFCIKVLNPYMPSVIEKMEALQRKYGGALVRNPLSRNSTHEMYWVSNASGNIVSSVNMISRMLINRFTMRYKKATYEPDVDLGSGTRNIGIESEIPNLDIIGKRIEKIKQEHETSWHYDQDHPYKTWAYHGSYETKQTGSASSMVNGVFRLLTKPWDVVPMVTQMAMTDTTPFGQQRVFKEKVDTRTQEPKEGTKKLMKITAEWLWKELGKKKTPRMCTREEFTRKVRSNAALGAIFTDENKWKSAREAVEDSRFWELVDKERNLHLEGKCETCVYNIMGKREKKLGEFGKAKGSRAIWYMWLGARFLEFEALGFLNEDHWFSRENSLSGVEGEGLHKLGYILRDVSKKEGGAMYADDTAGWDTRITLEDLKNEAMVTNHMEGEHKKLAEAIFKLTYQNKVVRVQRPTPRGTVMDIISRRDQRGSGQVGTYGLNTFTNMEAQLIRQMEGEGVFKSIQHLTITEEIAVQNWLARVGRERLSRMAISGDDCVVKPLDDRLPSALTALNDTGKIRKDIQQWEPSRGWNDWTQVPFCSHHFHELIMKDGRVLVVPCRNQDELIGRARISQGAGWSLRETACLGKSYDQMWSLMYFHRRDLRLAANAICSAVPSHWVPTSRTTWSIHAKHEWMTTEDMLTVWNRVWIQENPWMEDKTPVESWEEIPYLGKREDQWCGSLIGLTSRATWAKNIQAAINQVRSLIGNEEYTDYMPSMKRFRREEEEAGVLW
NACHT, LRR and PYD domains-containing protein 3, sequence (Q96P20 whole entry, the tested form may be a part): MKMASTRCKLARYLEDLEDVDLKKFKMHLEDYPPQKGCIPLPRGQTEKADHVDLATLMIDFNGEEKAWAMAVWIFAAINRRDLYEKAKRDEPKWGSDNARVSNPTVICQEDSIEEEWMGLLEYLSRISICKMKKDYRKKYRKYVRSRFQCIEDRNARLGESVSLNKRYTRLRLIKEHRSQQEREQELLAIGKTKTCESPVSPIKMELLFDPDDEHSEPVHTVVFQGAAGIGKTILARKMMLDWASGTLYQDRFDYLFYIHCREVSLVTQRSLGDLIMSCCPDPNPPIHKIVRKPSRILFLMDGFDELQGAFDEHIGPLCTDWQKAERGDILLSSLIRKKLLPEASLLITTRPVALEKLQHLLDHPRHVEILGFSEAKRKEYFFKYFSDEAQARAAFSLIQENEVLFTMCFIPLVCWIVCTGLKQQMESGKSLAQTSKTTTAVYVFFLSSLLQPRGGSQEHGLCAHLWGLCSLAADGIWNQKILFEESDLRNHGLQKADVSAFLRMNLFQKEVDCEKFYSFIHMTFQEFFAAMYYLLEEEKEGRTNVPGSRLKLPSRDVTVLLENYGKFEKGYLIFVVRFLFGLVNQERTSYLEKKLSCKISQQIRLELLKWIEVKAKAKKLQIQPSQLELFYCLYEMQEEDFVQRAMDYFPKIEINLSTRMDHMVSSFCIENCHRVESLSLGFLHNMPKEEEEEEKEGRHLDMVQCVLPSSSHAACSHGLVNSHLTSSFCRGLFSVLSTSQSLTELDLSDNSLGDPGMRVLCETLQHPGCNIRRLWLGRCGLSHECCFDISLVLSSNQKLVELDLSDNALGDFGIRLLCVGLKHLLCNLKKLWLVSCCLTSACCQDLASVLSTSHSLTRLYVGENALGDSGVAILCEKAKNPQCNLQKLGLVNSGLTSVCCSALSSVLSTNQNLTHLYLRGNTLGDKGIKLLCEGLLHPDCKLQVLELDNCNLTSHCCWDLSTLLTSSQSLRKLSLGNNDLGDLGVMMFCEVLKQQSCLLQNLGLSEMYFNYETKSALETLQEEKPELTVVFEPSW
Heat shock 70 kDa protein 1A, sequence (P0DMV8 whole entry): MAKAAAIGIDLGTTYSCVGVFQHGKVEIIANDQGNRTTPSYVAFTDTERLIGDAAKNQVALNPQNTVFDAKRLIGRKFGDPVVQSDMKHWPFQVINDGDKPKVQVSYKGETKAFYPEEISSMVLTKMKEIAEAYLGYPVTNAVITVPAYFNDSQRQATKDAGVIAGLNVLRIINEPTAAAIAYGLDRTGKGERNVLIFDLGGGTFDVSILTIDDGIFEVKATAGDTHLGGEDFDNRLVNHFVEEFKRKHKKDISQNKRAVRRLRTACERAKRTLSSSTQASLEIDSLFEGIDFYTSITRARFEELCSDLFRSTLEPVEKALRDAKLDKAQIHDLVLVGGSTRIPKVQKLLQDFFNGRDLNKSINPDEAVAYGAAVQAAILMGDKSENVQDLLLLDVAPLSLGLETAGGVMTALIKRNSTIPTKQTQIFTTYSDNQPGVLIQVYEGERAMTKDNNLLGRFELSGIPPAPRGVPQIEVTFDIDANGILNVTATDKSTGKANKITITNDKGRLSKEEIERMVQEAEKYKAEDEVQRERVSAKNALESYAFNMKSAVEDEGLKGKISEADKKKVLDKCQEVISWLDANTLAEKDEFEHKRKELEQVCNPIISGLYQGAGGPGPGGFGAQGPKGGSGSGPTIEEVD
ORF 73, sequence (O40947 whole entry): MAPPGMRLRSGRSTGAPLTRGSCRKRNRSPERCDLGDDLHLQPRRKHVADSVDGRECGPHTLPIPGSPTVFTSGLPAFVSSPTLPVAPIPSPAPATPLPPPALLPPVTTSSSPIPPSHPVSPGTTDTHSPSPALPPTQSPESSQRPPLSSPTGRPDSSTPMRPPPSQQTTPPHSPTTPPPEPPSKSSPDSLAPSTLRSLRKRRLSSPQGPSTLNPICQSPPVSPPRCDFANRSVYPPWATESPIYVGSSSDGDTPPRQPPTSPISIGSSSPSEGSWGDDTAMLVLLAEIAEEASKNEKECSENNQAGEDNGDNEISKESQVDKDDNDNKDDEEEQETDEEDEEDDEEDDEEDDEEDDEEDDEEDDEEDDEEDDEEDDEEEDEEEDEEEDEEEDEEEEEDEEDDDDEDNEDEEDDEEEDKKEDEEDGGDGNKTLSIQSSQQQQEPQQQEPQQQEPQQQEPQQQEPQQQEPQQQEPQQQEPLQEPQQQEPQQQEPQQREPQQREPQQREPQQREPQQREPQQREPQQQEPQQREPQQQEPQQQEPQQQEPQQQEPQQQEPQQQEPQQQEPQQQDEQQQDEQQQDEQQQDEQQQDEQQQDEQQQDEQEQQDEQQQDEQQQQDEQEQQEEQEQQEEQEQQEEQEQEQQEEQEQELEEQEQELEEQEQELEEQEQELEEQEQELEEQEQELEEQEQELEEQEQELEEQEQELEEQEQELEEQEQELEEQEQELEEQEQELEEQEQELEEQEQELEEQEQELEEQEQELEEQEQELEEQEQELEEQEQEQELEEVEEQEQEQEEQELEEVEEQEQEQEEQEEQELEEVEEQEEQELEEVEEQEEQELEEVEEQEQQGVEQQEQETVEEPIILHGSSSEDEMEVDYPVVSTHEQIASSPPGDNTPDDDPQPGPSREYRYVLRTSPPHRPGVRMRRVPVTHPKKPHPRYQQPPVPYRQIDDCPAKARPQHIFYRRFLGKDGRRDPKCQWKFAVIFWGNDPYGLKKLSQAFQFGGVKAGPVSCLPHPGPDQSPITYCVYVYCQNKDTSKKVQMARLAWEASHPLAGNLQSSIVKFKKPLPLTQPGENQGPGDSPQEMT
Heat shock cognate 71 kDa protein, sequence (P11142 whole entry): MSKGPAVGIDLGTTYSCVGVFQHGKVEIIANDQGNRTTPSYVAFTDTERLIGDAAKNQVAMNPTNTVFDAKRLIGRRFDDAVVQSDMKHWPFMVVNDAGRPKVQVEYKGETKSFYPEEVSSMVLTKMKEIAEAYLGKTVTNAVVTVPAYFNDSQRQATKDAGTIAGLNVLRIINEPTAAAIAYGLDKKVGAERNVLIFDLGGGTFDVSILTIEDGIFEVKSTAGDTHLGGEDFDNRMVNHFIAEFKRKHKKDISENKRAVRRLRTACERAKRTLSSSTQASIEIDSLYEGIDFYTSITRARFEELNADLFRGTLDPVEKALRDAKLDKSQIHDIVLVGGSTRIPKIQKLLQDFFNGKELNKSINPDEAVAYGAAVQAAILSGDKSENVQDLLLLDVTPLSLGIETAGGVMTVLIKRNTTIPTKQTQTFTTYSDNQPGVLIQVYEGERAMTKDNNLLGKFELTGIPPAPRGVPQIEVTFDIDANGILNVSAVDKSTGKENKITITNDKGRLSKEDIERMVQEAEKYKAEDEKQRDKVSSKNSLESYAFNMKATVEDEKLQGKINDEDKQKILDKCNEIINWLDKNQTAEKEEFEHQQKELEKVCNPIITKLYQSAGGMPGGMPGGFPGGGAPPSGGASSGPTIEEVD

Take `Cc1ccc(N2C(=O)CC(Sc3ccccc3C(=O)O)C2=O)cc1` (stereo not drawn): the IC50 in assay [1] is 34.4 µM (active); in the assay on Saccharomyces cerevisiae, 20.6 µM (active); in assay [2], > 66 µM (inactive); in [3], > 66 µM (inactive).

`COc1ccc(N(C(=O)CCl)C(C(=O)NCCc2ccccc2)C2CCCCC2)cc1Cl` (stereo not drawn): the concentration at half-maximal activity (AC50) in [4] is 0.496 µM (active); in assay [5], 0.505 µM (active); in [6], 1.48 µM (active); in assay [7] it was 1.18 µM (active).

On to `CCN(CC)CCC/N=C/c1c(-c2ccccc2)nn(-c2nc3ccccc3s2)c1O`, for which the AC50 in [8] is > 20 µM (inactive). Besides, the IC50 in [9] was > 80 µM (inactive).

Turning to `Cc1ccc(NC(=O)C2CCN(C(=O)c3cccs3)CC2)cc1`, the IC50 in [10] and in assay [11] was > 100 µM (inactive) throughout.

For the compound `CCCCCNC(=O)C(=O)C1C(=O)Nc2ccccc21` (stereo not drawn), the IC50 in assay [12] was 2.9 µM (active).

Consider `CCN(CC)C(=O)c1ccc2c(c1)C1C=CCC1C(C(=O)O)N2` (stereo not drawn), for which the AC50 at ORF 73 was 166 µM (active). Besides, the IC50 was > 100 µM (not active) in assay [13], > 100 µM (not active) in assay [14], > 100 µM (not active) in assay [15] and 86.7 µM (active) on Genome polyprotein. Also, the EC50 in [16] was 11.2 µM (active); in assay [17], 6.32 µM (active).

Turning to `Cc1cc(C)cc(C(=O)N2CC(=O)Nc3ccccc32)c1`, the 50% effective concentration (EC50) in the assay on BJ [18] was 11.5 µM (inconclusive); in the assay with BJ [19], 1.24 µM (inconclusive); in assay [20] it was 1.09 µM (active); in the assay “cells”, 0.858 µM (active); with BJ [21], 3.38 µM (active); in [22], 0.817 µM (active). The EC50 is < 0.1 µM (active) in assay [23], > 12 µM (inconclusive) in [24], < 0.1 µM (active) in [26] and 0.921 µM (active) in assay [28]. Besides, the values for the IC50 (in the assay on J774.A1; in assay [27]) were 0.161 µM (active) and > 80 µM (inactive), respectively. Further, the AC50 in assay [25] was > 30 µM (inactive).

The values are drawn from ChEMBL document CHEMBL1201862, “PubChem BioAssay data set” (2004).
